{"source": "PubChem BioAssay AID1963873", "about": "(Molecular Pharmacology Branch, DTP, NCI, 2024);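 further: cells exposed to agents for seven days before viability read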;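 on viability, T/C: 100% = DMSO vehicle control wells and lower values mean fewer viable cells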", "system": "276233-004-R-J1-PDC KRAS spheroids with HUVEC/MSC, viability", "assay": "Anticancer human tumor 276233-004-R-J1-PDC patient-derived colon adenocarcinoma cell line growth inhibition [KRAS2]", "details": "for IC50: curve of first compound; for viability, T/C: stronger effect = lower value", "how_it_was_run": "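Combination screen of spheroid viability in tumor-cell co-cultures with endothelial (HUVEC) and mesenchymal stem cell stroma. Each agent was tested in half-log dilutions, topping at clinical Cmax or at 10 microM without a known Cmax.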", "data": [{"smiles": "CC(=O)Nc1cccc(-n2c(=O)n(C3CC3)c(=O)c3c(Nc4ccc(I)cc4F)n(C)c(=O)c(C)c32)c1", "note": "+ CC1OCC2(CCN(c3cnc(Sc4ccnc(N)c4Cl)c(N)n3)CC2)C1N", "values": [{"measurement": "IC50", "setting": "second compound 0.1 µM", "value": 4.28, "unit": "nM"}, {"measurement": "IC50", "setting": "second compound 0.316 µM", "value": 2.46, "unit": "nM"}, {"measurement": "IC50", "setting": "second compound 1 µM", "value": 0.405, "unit": "nM"}, {"measurement": "IC50", "setting": "second compound 3.16 µM", "value": "< 0.1", "unit": "nM"}, {"measurement": "IC50", "setting": "second compound 10 µM", "value": "< 0.1", "unit": "nM"}, {"measurement": "viability, T/C", "setting": "second compound 0.1 µM, first compound 0.0001 µM", "value": 78.4, "unit": "%"}, {"measurement": "viability, T/C", "setting": "second compound 0.1 µM, first compound 0.000316 µM", "value": 87.2, "unit": "%"}, {"measurement": "viability, T/C", "setting": "second compound 0.1 µM, first compound 0.001 µM", "value": 65.8, "unit": "%"}, {"measurement": "viability, T/C", "setting": "second compound 0.1 µM, first compound 0.00316 µM", "value": 55.5, "unit": "%"}, {"measurement": "viability, T/C", "setting": "second compound 0.1 µM, first compound 0.01 µM", "value": 35.6, "unit": "%"}, {"measurement": "viability, T/C", "setting": "second compound 0.1 µM, first compound 0.0316 µM", "value": 13.1, "unit": "%"}, {"measurement": "viability, T/C", "setting": "second compound 0.316 µM, first compound 0.0001 µM", "value": 67, "unit": "%"}, {"measurement": "viability, T/C", "setting": "second compound 0.316 µM, first compound 0.000316 µM", "value": 74.1, "unit": "%"}, {"measurement": "viability, T/C", "setting": "second compound 0.316 µM, first compound 0.001 µM", "value": 61, "unit": "%"}, {"measurement": "viability, T/C", "setting": "second compound 0.316 µM, first compound 0.00316 µM", "value": 45.5, "unit": "%"}, {"measurement": "viability, T/C", "setting": "second compound 0.316 µM, first compound 0.01 µM", "value": 28, "unit": "%"}, {"measurement": "viability, T/C", "setting": "second compound 0.316 µM, first compound 0.0316 µM", "value": 13.5, "unit": "%"}, {"measurement": "viability, T/C", "setting": "second compound 1 µM, first compound 0.0001 µM", "value": 57.4, "unit": "%"}, {"measurement": "viability, T/C", "setting": "second compound 1 µM, first compound 0.000316 µM", "value": 55.4, "unit": "%"}, {"measurement": "viability, T/C", "setting": "second compound 1 µM, first compound 0.001 µM", "value": 42.6, "unit": "%"}, {"measurement": "viability, T/C", "setting": "second compound 1 µM, first compound 0.00316 µM", "value": 28.4, "unit": "%"}, {"measurement": "viability, T/C", "setting": "second compound 1 µM, first compound 0.01 µM", "value": 27.4, "unit": "%"}, {"measurement": "viability, T/C", "setting": "second compound 1 µM, first compound 0.0316 µM", "value": 7.28, "unit": "%"}, {"measurement": "viability, T/C", "setting": "second compound 3.16 µM, first compound 0.0001 µM", "value": 39.7, "unit": "%"}, {"measurement": "viability, T/C", "setting": "second compound 3.16 µM, first compound 0.000316 µM", "value": 31.9, "unit": "%"}, {"measurement": "viability, T/C", "setting": "second compound 3.16 µM, first compound 0.001 µM", "value": 23.3, "unit": "%"}, {"measurement": "viability, T/C", "setting": "second compound 3.16 µM, first compound 0.00316 µM", "value": 12.7, "unit": "%"}, {"measurement": "viability, T/C", "setting": "second compound 3.16 µM, first compound 0.01 µM", "value": 9.04, "unit": "%"}, {"measurement": "viability, T/C", "setting": "second compound 3.16 µM, first compound 0.0316 µM", "value": 5.79, "unit": "%"}, {"measurement": "viability, T/C", "setting": "second compound 10 µM, first compound 0.0001 µM", "value": 31.4, "unit": "%"}, {"measurement": "viability, T/C", "setting": "second compound 10 µM, first compound 0.000316 µM", "value": 23.7, "unit": "%"}, {"measurement": "viability, T/C", "setting": "second compound 10 µM, first compound 0.001 µM", "value": 14.7, "unit": "%"}, {"measurement": "viability, T/C", "setting": "second compound 10 µM, first compound 0.00316 µM", "value": 10.9, "unit": "%"}, {"measurement": "viability, T/C", "setting": "second compound 10 µM, first compound 0.01 µM", "value": 17.6, "unit": "%"}, {"measurement": "viability, T/C", "setting": "second compound 10 µM, first compound 0.0316 µM", "value": 8.53, "unit": "%"}]}]}
